Patent publication US20210170033A1, “NOVEL CONJUGATES OF A PHARMACEUTICAL AGENT AND A MOIETY CAPABLE OF BINDING TO A GLUCOSE SENSING PROTEIN” (SANOFI, priority 2017, published 2021)

system: A2780 cells; assay: Deoxy-glucose uptake assay in A2780 cells (14C 2-deoxy-D-glucose transport); type: cell-based; settings: Homo sapiens, 20 min; inhibition of 14C 2-deoxy-D-glucose transport into A2780 cells; 20 min compound incubation; read-out: IC50
Experimental: 1. Deoxy-Glucose Uptake Assay in A2780 Cells:
For measurement of ^14C 2-deoxy-D-glucose transport into A2780 cells, cells were seeded in 96-well plates (Cytostar-T Plates Perkin Elmer, 70,000 cells/180 μl/well) in medium complete (RPMI1640+Glutamax (Life technologies #61870)) and grown for 48 hours. After 48 h, cells were washed once with 180 μL KRB (Krebs Ringer Bicarbonate) buffer, and stimulated in a dose dependent manner by adding 10 μL of test compound dilution 0-1.1 mM (11 times higher concentration than final) or 10 μL of 1.1 mM Cytochalasin B solution as negative control, to 90 μL KRB buffer and incubated for 20 minutes. After compound stimulation, the transport of ^14C 2-deoxy-D-glucose was started by adding of 50 μL 2-^14C[U] 2-deoxy-D-glucose solution (109.1 μM 2-deoxy-D-glucose cold and 33 μM 2-^14C[U] 2-deoxy-D-glucose 0.1 μCi/well) for 20 minutes. Transport was stopped by adding 50 μL/well 96 μM Cytochalasin B solution. Plates were measured in a 96-well Wallac Microbeta device. The cpm (counts per minute) values were used to determine the % inhibition values for the test compounds within each experiment. In a first step, the mean background value generated by Cytochalasin B (a potent glucose transporter inhibitor) treated cells, was subtracted from the mean values of the treated cells. All mean values were obtained from triplicates. For %-Inhibition results, the mean value of the untreated cells (just KRB) was set as 100%. All other mean values were calculated to this relation. IC50 were obtained by regression analysis of dose response curve with 7 or 14 concentrations, respectively, for each compound.

| SMILES | IC50 [µM] |
| --- | --- |
| COc1cc(OCc2cccc(CNC(=O)CCC(=O)NCCCCCC(=O)OC(C)(C)C)c2)c(Cl)cc1C(=O)O[C@H]1[C@@H](OC)O[C@H](CO)[C@@H](O)[C@@H]1O [Example 390] | 7.1 |
| COc1c(C(=O)O[C@H]2[C@@H](OC)O[C@H](CO)[C@@H](O)[C@@H]2O)ccc(OCc2ccccc2)c1Cl [Example 298] | 27.2 |
| CO[C@H]1O[C@H](CO)[C@@H](O)[C@H](O)[C@H]1NC(=O)c1cc(Cl)c(OCc2ccc3c(c2)nnn3C)c(Cl)c1C [Example 260] | 75.2 |
| COc1cc(OCc2coc(-c3ccc(Cl)cc3)n2)c(Cl)cc1C(=O)O[C@H]1[C@@H](OC)O[C@H](CO)[C@@H](O)[C@@H]1O [Example 474] | < 0.1 |
| COc1cc(OCc2cccc(NC(=O)CCCCCCCCC(=O)OC(C)(C)C)c2)c(Cl)cc1C(=O)N[C@H]1[C@@H](OC)O[C@H](CO)[C@@H](O)[C@@H]1O [Example 431] | 6.1 |
| CO[C@H]1O[C@H](CO)[C@@H](O)[C@H](O)[C@H]1OC(=O)c1cc(Cl)c(OCc2cccc(CO)n2)c(Cl)c1C [Example 259] | 12.2 |
| COC(=O)[C@H](CCCCNC(=O)CCCC(=O)Nc1cccc(COc2c(Cl)cc(C(=O)N[C@H]3[C@@H](OC)O[C@H](CO)[C@@H](O)[C@@H]3O)c(C)c2Cl)c1)NC(=O)OC(C)(C)C [Example 463] | 25.1 |
| CO[C@H]1O[C@H](CO)[C@@H](O)[C@H](O)[C@H]1OC(=O)c1cc(Cl)c(OCc2ccccc2)cc1C [Example 300] | 6.9 |
| COC(=O)c1ccc(COc2c(Cl)cc(C(=O)N[C@H]3[C@@H](OC)O[C@H](CO)[C@@H](O)[C@@H]3O)c(C)c2Cl)cn1 [Example 245] | 63.6 |
| COc1cc(OCc2cccc(NC(=O)CCC(=O)OC(C)(C)C)c2)c(Cl)cc1C(=O)N[C@H]1[C@@H](OC)O[C@H](CO)[C@@H](O)[C@@H]1O [Example 428] | 4.4 |
| COc1cc(OCc2cccc(CNC(=O)CCCCCCCCC(=O)OC(C)(C)C)c2)c(Cl)cc1C(=O)N[C@H]1[C@@H](OC)O[C@H](CO)[C@@H](O)[C@@H]1O [Example 427] | 60.5 |
| CO[C@H]1O[C@H](CO)[C@@H](O)[C@H](O)[C@H]1OC(=O)c1cc(Cl)c(OCc2cn3c(C)cccc3n2)c(Cl)c1C [Example 255] | 0.3 |
| COC(=O)[C@H](CCCCNC(=O)CNc1cc(COc2c(Cl)cc(C(=O)N[C@H]3[C@@H](OC)O[C@H](CO)[C@@H](O)[C@@H]3O)c(C)c2Cl)cnc1OC)NC(=O)OC(C)(C)C [Example 388] | 52.9 |
| COc1cc(OCc2ccc(OCC(=O)OC(C)(C)C)cc2)c(Cl)cc1C(=O)N[C@H]1[C@@H](OC)O[C@H](CO)[C@@H](O)[C@@H]1O [Example 387] | 2.6 |
| COC(=O)CCCCCNC(=O)c1cccc(COc2c(Cl)cc(C(=O)N[C@H]3[C@@H](OC)O[C@H](CO)[C@@H](O)[C@@H]3O)c(C)c2Cl)c1 [Example 323] | 28 |
| COC(=O)[C@@H](N)CCCCNC(=O)CCCCCn1c(COc2c(Cl)cc(C(=O)N[C@H]3[C@@H](OC)O[C@H](CO)[C@@H](O)[C@@H]3O)c(C)c2Cl)nc2ccccc21 [Example 384] | 44.2 |
| CO[C@H]1O[C@H](CO)[C@@H](O)[C@H](O)[C@H]1OC(=O)c1cc(Cl)c(OCc2ccc3c(c2)nnn3C)c(Cl)c1C [Example 261] | 0.5 |
| COc1cc(OCc2ccc(/C=C/C(=O)NCCCCCC(=O)OC(C)(C)C)cc2)c(Cl)cc1C(=O)N[C@H]1[C@@H](OC)O[C@H](CO)[C@@H](O)[C@@H]1O (relative stereo) [Example 392] | 1.8 |
| COc1cc(C(=O)O[C@H]2[C@@H](OC)O[C@H](CO)[C@@H](O)[C@@H]2O)cc(Cl)c1OCc1cnc(OC)c(Cl)c1 [Example 216] | 2.2 |
| COc1cc(C(=O)N[C@H]2[C@@H](OC)O[C@H](CO)[C@@H](O)[C@@H]2O)cc(Cl)c1OCc1ccccc1 [Example 179] | 38 |
| COc1cc(OCc2ccc(/C=C/C(=O)NCCCC(=O)OC(C)(C)C)cc2)c(Cl)cc1C(=O)N[C@H]1[C@@H](OC)O[C@H](CO)[C@@H](O)[C@@H]1O [Example 236] | 0.4 |
| COC(=O)[C@H](CCCCNC(=O)CCCCCNC(=O)CCC(=O)NCc1cccc(COc2cc(OC)c(C(=O)O[C@H]3[C@@H](OC)O[C@H](CO)[C@@H](O)[C@@H]3O)cc2Cl)c1)NC(=O)OC(C)(C)C [Example 411] | 25.9 |
| COC(=O)[C@H](CCCCNC(=O)COCCOCC(=O)NCc1cccc(COc2cc(OC)c(C(=O)O[C@H]3[C@@H](OC)O[C@H](CO)[C@@H](O)[C@@H]3O)cc2Cl)c1)NC(=O)OC(C)(C)C [Example 399] | 20.2 |

| SMILES | IC50 [µM] |
| --- | --- |
| CO[C@H]1O[C@H](CO)[C@@H](O)[C@H](O)[C@H]1OC(=O)c1cc(Cl)c(OCCc2cccc(Cl)c2)c(Cl)c1C [Example 242] | 19.8 |
| COC(=O)[C@H](CCCCNC(=O)CCCCCCCCC(=O)Nc1cccc(COc2c(Cl)cc(C(=O)N[C@H]3[C@@H](OC)O[C@H](CO)[C@@H](O)[C@@H]3O)c(C)c2Cl)c1)NC(=O)OC(C)(C)C [Example 465] | 49.9 |
| COc1cc(OCc2nc3ccccc3n2CCCCCCCCCCCCCCCC(=O)O)c(Cl)cc1C(=O)N[C@H]1[C@@H](OC)O[C@H](CO)[C@@H](O)[C@@H]1O [Example 421] | 15.1 |
| COc1cc(OCc2cccc(NC(=O)OC(C)(C)C)c2)c(Cl)cc1C(=O)N[C@H]1[C@@H](OC)O[C@H](CO)[C@@H](O)[C@@H]1O [Example 359] | 0.4 |
| COc1cc(OCc2nnc(-c3ccc(Cl)cc3)s2)c(Cl)cc1C(=O)O[C@H]1[C@@H](OC)O[C@H](CO)[C@@H](O)[C@@H]1O [Example 477] | 3.7 |
| COC(=O)c1ccc(COc2c(Cl)cc(C(=O)O[C@H]3[C@@H](OC)O[C@H](CO)[C@@H](O)[C@@H]3O)c(C)c2Cl)cn1 [Example 252] | 6.5 |
| COc1cc(OCc2nc3ccccc3n2CCCCCCCC(=O)O)c(Cl)cc1C(=O)N[C@H]1[C@@H](OC)O[C@H](CO)[C@@H](O)[C@@H]1O (relative stereo) [Example 482] | 8.1 |
| CO[C@H]1O[C@H](CO)[C@@H](O)[C@H](O)[C@H]1NC(=O)c1cc(Cl)c(OCc2ccccc2)cc1C [Example 297] | 2.2 |
| COc1cc(OCc2cccc(NC(=O)CCCC(=O)OC(C)(C)C)c2)c(Cl)cc1C(=O)N[C@H]1[C@@H](OC)O[C@H](CO)[C@@H](O)[C@@H]1O [Example 429] | 2.9 |
| CO[C@@H]1O[C@H](COC(=O)c2cc(OCc3ccccc3)c3cc[nH]c3c2)[C@@H](O)[C@H](O)[C@H]1O [Example 145] | 45.6 |
| COC(=O)[C@H](CCCCNC(=O)CCCCCCC(=O)Nc1cccc(COc2c(Cl)cc(C(=O)N[C@H]3[C@@H](OC)O[C@H](CO)[C@@H](O)[C@@H]3O)c(C)c2Cl)c1)NC(=O)OC(C)(C)C [Example 464] | 44 |
| COc1cc(OCc2cccc(OCCCCCC(=O)OC(C)(C)C)c2)c(Cl)cc1C(=O)N[C@H]1[C@@H](OC)O[C@H](CO)[C@@H](O)[C@@H]1O [Example 394] | 4 |
| CO[C@H]1O[C@H](CO)[C@@H](O)[C@H](O)[C@H]1NC(=O)c1cc(Cl)c(OCc2cccc(C(=O)OC(C)(C)C)c2)c(Cl)c1C [Example 209] | 2.5 |
| C#CCCCn1c(COc2c(Cl)cc(C(=O)N[C@H]3[C@@H](OC)O[C@H](CO)[C@@H](O)[C@@H]3O)c(C)c2Cl)cc2ccccc21 [Example 280] | 5.9 |
| COc1cc(OCc2cccc(NC(=O)COCCOCC(=O)O)c2)c(Cl)cc1C(=O)O[C@H]1[C@@H](OC)O[C@H](CO)[C@@H](O)[C@@H]1O [Example 400] | 47.1 |
| Cc1ccc(OCc2ccccc2)cc1C(=O)OC[C@H]1OC(O)[C@H](O)[C@@H](O)[C@@H]1O (some centres unmarked) [Example 61] | 29.2 |
| COC(=O)[C@H](CCCCNC(=O)CCC(=O)NCc1cccc(COc2cc(OC)c(C(=O)N[C@H]3[C@@H](OC)O[C@H](CO)[C@@H](O)[C@@H]3O)cc2Cl)c1)NC(=O)OC(C)(C)C [Example 435] | 45.3 |
| COC(=O)c1cc(COc2c(Cl)cc(C(=O)O[C@H]3[C@@H](OC)O[C@H](CO)[C@@H](O)[C@@H]3O)c(C)c2Cl)ccc1Cl [Example 262] | 1 |
| COc1cc(C(=O)O[C@H]2[C@@H](OC)O[C@H](CO)[C@@H](O)[C@@H]2O)cc(Cl)c1OCc1cccc(OCC(=O)OC(C)(C)C)c1 [Example 276] | 14.4 |
| CO[C@H]1O[C@H](CO)[C@@H](O)[C@H](O)[C@H]1OC(=O)c1cc(Cl)c(OCc2cccc(CNCCCC(=O)OC(C)(C)C)c2)c(Cl)c1C [Example 348] | 31 |
| COc1cc(OCc2coc(-c3ccc(C(F)(F)F)cc3)n2)c(Cl)cc1C(=O)O[C@H]1[C@@H](OC)O[C@H](CO)[C@@H](O)[C@@H]1O [Example 473] | < 0.1 |
| CCOC(=O)c1cccc(COc2c(Cl)cc(C(=O)N[C@H]3[C@@H](OC)O[C@H](CO)[C@@H](O)[C@@H]3O)c(C)c2Cl)n1 [Example 270] | 27.8 |
| COC(=O)c1cnc(COc2c(Cl)cc(C(=O)O[C@H]3[C@@H](OC)O[C@H](CO)[C@@H](O)[C@@H]3O)c(C)c2Cl)cn1 [Example 253] | 7.1 |

same assay, conditions: Homo sapiens, A2780, 20 min

| SMILES | IC50 [µM] |
| --- | --- |
| COc1cc(C(=O)OC[C@H]2O[C@@H](OCC[Si](C)(C)C)[C@H](O)[C@@H](O)[C@@H]2O)cc(Cl)c1OC(=O)c1ccccc1 [Example 36] | 47.4 |
